Test system: hypertensive subjects
Assay: Seated automated office blood pressure (AOBP) in randomized, placebo-controlled, dose-ranging study
Format: in vivo, human
Conditions: Part 1
Protocol: A randomized, double-blinded, placebo-controlled, dose-ranging, multicenter study was conducted to evaluate the effect of orally administered Compound A HBr on blood pressure for the treatment of hypertension in male and female subjects ≥18 years of age.
The study consists of two parts. For enrollment into Part 1 of the study, a subject's value of plasma renin activity (PRA) must be ≤1 ng/mL/h based on morning measurement. If the value of PRA >1 ng/mL/h based on morning measurement, then subjects may be eligible to enter Part 2 of the study.
For Part 1, 163 enrolled subjects ≥18 years of age were randomized into 6 equal treatment groups (1:1:1:1:1:1) to 12.5 mg BID, 25 mg BID, 12.5 mg QD, 50 mg QD, 100 mg QD, or placebo. After a review of interim clinical data, the 2 lowest dose levels (12.5 mg QD and 12.5 mg BID) were stopped for future randomization due to a lack of consistent meaningful reduction of blood pressure, but the patients randomized to that point remained in the study through completion. Thus, after the review of interim clinical data, subjects were randomized into 4 equal treatment groups (1:1:1:1) to 25 mg BID, 50 mg QD, 100 mg QD, or placebo.
For Part 2, 36 enrolled subjects ≥18 years of age were randomized (5:1) to either 100 mg QD Compound A HBr or placebo such that the Compound A HBr treatment group consisted of approximately 30 subjects and the placebo treatment group will consist of approximately 6 subjects.
Subjects orally administered the assigned study drug (Compound A HBr or placebo) according to the assigned dosing regimen for 8 weeks beginning on Study Day 1. All subjects in Part 1 (regardless of dosing group) received BID dosing to preserve the integrity of the blind; active drug is administered as the morning dose for all QD dose groups. Subjects returned to the research facility or were seen by the clinical investigator or approved home health care professional at the end of Study Weeks 1, 2, 3, 4, 5, 6, 7, and 8 (±2 days) for protocol-defined efficacy and safety assessments and procedures, assessment of adverse events (AEs), and confirmation of compliance with study drug usage. Subjects also completed a telephone visit and blood pressure (BP) check at home approximately 3 days post last dose of study drug. Subjects attended up to 14 full clinic visits, including a pre-Screening visit, a Screening/start of Placebo Run-in visit, a second visit during Placebo Run-in, a clinic visit to initiate the ABPM procedure, a Randomization visit, 8 weekly visits during double-blind treatment, and an end-of-study visit scheduled 4 weeks after the last study treatment for final efficacy and safety assessments.
An automated oscillometric sphygmomanometer device was used to measure the subjects' systolic and diastolic blood pressure in office after approximately 5 minutes of rest in the seated position.
The primary endpoint is the change in office-measured (mean of last 2 of 5 unattended measurements using an automated oscillometric sphygmomanometer device after approximately 5 minutes of rest in the seated position) systolic blood pressure (SBP) from baseline to the end of Study Week 8.
Secondary endpoints of this study were: • (a) Change in 24-hour ambulatory blood pressure monitoring (ABPM) parameters (systolic and diastolic) from baseline to the end of Study Week 7. • (b) Change in office-measured SBP from baseline to the end of Study Weeks 1, 2, 3, 4, 5, 6, and 7. • (c) Change in office-measured diastolic blood pressure (DBP) from baseline to the end of Study Weeks 1, 2, 3, 4, 5, 6, 7, and 8. • (d) Proportion of subjects who achieve office-measured BP of ≤130/80 mm Hg by the end of Study Week 8.

[1] = 25 mg BID, BMI at baseline 25-30 kg/m^2
[2] = 25 mg BID, BMI at baseline <25 kg/m^2
[3] = 25 mg BID, BMI at baseline >30 kg/m^2
[4] = 25 mg BID, Seated SBP Tertile High
[5] = 25 mg BID, Seated SBP Tertile Low
[6] = 25 mg BID, Seated SBP Tertile Middle
[7] = 25 mg BID, Systolic Blood Pressure Tertile at Baseline High
[8] = 25 mg BID, Systolic Blood Pressure Tertile at Baseline Low
[9] = 25 mg BID, Systolic Blood Pressure Tertile at Baseline Middle
[10] = 25 mg BID, Thiazide Diuretic Use at Baseline No
[11] = 25 mg BID, Thiazide Diuretic Use at Baseline Yes

CC(=O)N[C@H]1CC[C@H](NC(=O)CN2CCN(c3nncc(-c4ccc(C)cc4)n3)CC2)CC1 [Compound A HBr]
Mean (SD) Change from Baseline at Week 8 in Automated Office-Measured Diastolic Blood Pressure (25 mg BID, BMI >30 kg/m^2): −5.33 (8.88) mmHg
Mean (SD) Automated Office-Measured Systolic Blood Pressure at Wk 8 [1]: 134.11 (15.72) mmHg
Mean (SD) Change from Baseline at Week 8 in Automated Office-Measured Systolic Blood Pressure [1]: −4.89 (13.17) mmHg
Mean (SD) Automated Office-Measured Systolic Blood Pressure at Wk 8 [2]: 126.25 (18.52) mmHg
Mean (SD) Change from Baseline at Week 8 in Automated Office-Measured Systolic Blood Pressure [2]: −18.13 (15.56) mmHg
Mean (SD) Automated Office-Measured Systolic Blood Pressure at Wk 8 [3]: 130.93 (17.43) mmHg
Mean (SD) Change from Baseline at Week 8 in Automated Office-Measured Systolic Blood Pressure [3]: −11.13 (13.83) mmHg
Mean (SD) Automated Office-Measured Diastolic Blood Pressure at Wk 8 (25 mg BID, Race Black or AA): 75.43 (10.05) mmHg
Mean (SD) Automated Office-Measured Systolic Blood Pressure at Wk 8 (25 mg BID, Race Black or AA): 124.00 (15.68) mmHg
Mean (SD) Change from Baseline at Week 8 in Automated Office-Measured Diastolic Blood Pressure (25 mg BID, Race Black or AA): −7.79 (9.03) mmHg
Mean (SD) Change from Baseline at Week 8 in Automated Office-Measured Systolic Blood Pressure (25 mg BID, Race Black or AA): −13.29 (15.91) mmHg
Mean (SD) Automated Office-Measured Diastolic Blood Pressure at Wk 8 (25 mg BID, Race Other): 75.43 (14.14) mmHg
Mean (SD) Automated Office-Measured Systolic Blood Pressure at Wk 8 (25 mg BID, Race Other): 133.71 (16.53) mmHg
Mean (SD) Change from Baseline at Week 8 in Automated Office-Measured Diastolic Blood Pressure (25 mg BID, Race Other): −2.31 (12.36) mmHg
Mean (SD) Change from Baseline at Week 8 in Automated Office-Measured Systolic Blood Pressure (25 mg BID, Race Other): −9.07 (13.59) mmHg
Mean (SD) Automated Office-Measured Diastolic Blood Pressure at Wk 8 [4]: 74.00 (7.39) mmHg
Mean (SD) Change from Baseline at Week 8 in Automated Office-Measured Diastolic Blood Pressure [4]: −7.36 (5.62) mmHg
Mean (SD) Automated Office-Measured Diastolic Blood Pressure at Wk 8 [5]: 72.40 (9.55) mmHg
Mean (SD) Change from Baseline at Week 8 in Automated Office-Measured Diastolic Blood Pressure [5]: −6.15 (8.84) mmHg
Mean (SD) Automated Office-Measured Diastolic Blood Pressure at Wk 8 [6]: 79.09 (17.89) mmHg
Mean (SD) Change from Baseline at Week 8 in Automated Office-Measured Diastolic Blood Pressure [6]: 0.91 (15.57) mmHg
Mean (SD) Automated Office-Measured Diastolic Blood Pressure at Wk 8 (25 mg BID, Sex Female): 77.12 (15.02) mmHg
Mean (SD) Automated Office-Measured Systolic Blood Pressure at Wk 8 (25 mg BID, Sex Female): 132.88 (16.99) mmHg
Mean (SD) Change from Baseline at Week 8 in Automated Office-Measured Diastolic Blood Pressure (25 mg BID, Sex Female): −2.41 (13.79) mmHg
Mean (SD) Change from Baseline at Week 8 in Automated Office-Measured Systolic Blood Pressure (25 mg BID, Sex Female): −10.62 (14.75) mmHg
Mean (SD) Automated Office-Measured Diastolic Blood Pressure at Wk 8 (25 mg BID, Sex Male): 72.82 (9.34) mmHg
Mean (SD) Automated Office-Measured Systolic Blood Pressure at Wk 8 (25 mg BID, Sex Male): 128.82 (16.45) mmHg
Mean (SD) Change from Baseline at Week 8 in Automated Office-Measured Diastolic Blood Pressure (25 mg BID, Sex Male): −5.64 (7.70) mmHg
Mean (SD) Change from Baseline at Week 8 in Automated Office-Measured Systolic Blood Pressure (25 mg BID, Sex Male): −9.36 (13.49) mmHg
Mean (SD) Automated Office-Measured Systolic Blood Pressure at Wk 8 [7]: 139.86 (16.99) mmHg
Mean (SD) Change from Baseline at Week 8 in Automated Office-Measured Systolic Blood Pressure [7]: −14.14 (13.63) mmHg
Mean (SD) Automated Office-Measured Systolic Blood Pressure at Wk 8 [8]: 120.70 (13.06) mmHg
Mean (SD) Change from Baseline at Week 8 in Automated Office-Measured Systolic Blood Pressure [8]: −12.50 (13.48) mmHg
Mean (SD) Automated Office-Measured Systolic Blood Pressure at Wk 8 [9]: 135.45 (15.29) mmHg
Mean (SD) Change from Baseline at Week 8 in Automated Office-Measured Systolic Blood Pressure [9]: −5.41 (14.64) mmHg
Automated Office-Measured Diastolic Blood Pressure, Week 8, Mean (SD) [10]: 74.36 (8.31) mmHg
Mean (SD) Automated Office-Measured Systolic Blood Pressure at Wk 8 [10]: 132.45 (15.21) mmHg
Mean (SD) Change from Baseline at Week 8 in Automated Office-Measured Diastolic Blood Pressure [10]: −6.09 (7.34) mmHg
Mean (SD) Change from Baseline at Week 8 in Automated Office-Measured Systolic Blood Pressure [10]: −9.32 (14.08) mmHg
Automated Office-Measured Diastolic Blood Pressure, Week 8, Mean (SD) [11]: 76.12 (15.60) mmHg
Mean (SD) Automated Office-Measured Systolic Blood Pressure at Wk 8 [11]: 130.53 (17.84) mmHg
Mean (SD) Change from Baseline at Week 8 in Automated Office-Measured Diastolic Blood Pressure [11]: −2.12 (13.83) mmHg
Mean (SD) Change from Baseline at Week 8 in Automated Office-Measured Systolic Blood Pressure [11]: −10.65 (14.39) mmHg
Mean (SD) Automated Office-Measured Systolic Blood Pressure at Wk 8 (50 mg QD, ACEi/ARB No): 131.13 (13.27) mmHg
Mean (SD) Change from Baseline at Week 8 in Automated Office-Measured Systolic Blood Pressure (50 mg QD, ACEi/ARB No): −6.75 (15.62) mmHg
Mean (SD) Automated Office-Measured Systolic Blood Pressure at Wk 8 (50 mg QD, ACEi/ARB Yes): 127.65 (14.07) mmHg
